Source: article PMC6225212, “Synthesis and Pharmacological Evaluation of Novel Silodosin-Based Arylsulfonamide Derivatives as α1A/α1D-Adrenergic Receptor Antagonist with Potential Uroselective Profile” (Molecules : A Journal of Synthetic Chemistry and Natural …, 2018)

Tests used:
[1] = In vitro metabolic stability in rat-liver microsomes (RLM); type: in vitro ADME
Method: In vitro biotransformation assays of selected compounds 9 and 10 were performed using rat-liver microsomes (RLM), potassium-phosphate buffer, NADPH-regenerating system (NADP, glucose-6-phosphate, glucose-6-phosphate dehydrogenase), and levallorphan as internal standard, according to the previously published procedure. Compound I and the drug tamsulosin were used as reference standard. UPLC/MS analysis (Waters Corporation, Milford, MA, USA) was performed to determine the quantity of the starting material left in solution. The in vitro half-time (t1/2) for test compounds was determined from the slope of the linear regression of ln % parent compound remaining versus incubation time. The calculated t1/2 was incorporated into the following equation to obtain intrinsic clearance: (Clint) = (volume of incubation [µL]/protein in the incubation [mg]) × 0.693/t1/2.
Metabolic stability of tested compound was analyzed using incubation systems, composed of: tested compounds (10 μM), RLMs (microsomes from rat male liver, pooled; 0.2 mg/mL; Sigma Aldrich), NADPH-regenerating system (NADP+, glucose-6-phosphate and glucose-6-phosphate dehydrogenase in 100mM potassium buffer, pH 7.4; all from Sigma Aldrich), and potassium buffer, pH 7.4. […] Firstly, all samples contained incubation mixture (without NADPH-regenerating system) were preincubated in a thermoblock at 37 °C for 10 min. Then reaction was initiated by the addition of NADPH-regenerating system. In control samples NADPH-regenerating system was replaced with potassium buffer. Probes were incubated in thermoblock for 15 and 30 min at 37 °C. After addition of internal standard (levallorphan, 10 μM), the biotransformation process was stopped by addition of perchloric acid (69–72%, by volume). Next, samples were centrifuged (Centrifuge 5427 R, Eppendorf, Hamburg, Germany) and supernatants were analyzed using UPLC/MS (Waters Corporation). All experiments were run in duplicates. Half-life time was evaluated using a nonlinear regression model using Graph Pad Prism software (Graph Pad Software, La Jolla, San Diego, CA, USA) and intrinsic clearance was calculated from the equation Clint = (volume of incubation [μL]/protein in the incubation [mg]) ×∙0.693/t1/2 [33].

α1B-ARs = biological target: T1, α1B-ARs (Homo sapiens, UniProt P35368); parameters: method as in PMID 27658792; key to α1B Profile: ANT—antagonist; AGO—agonist; conditions: cited from earlier work
T1 sequence (P35368 1-520): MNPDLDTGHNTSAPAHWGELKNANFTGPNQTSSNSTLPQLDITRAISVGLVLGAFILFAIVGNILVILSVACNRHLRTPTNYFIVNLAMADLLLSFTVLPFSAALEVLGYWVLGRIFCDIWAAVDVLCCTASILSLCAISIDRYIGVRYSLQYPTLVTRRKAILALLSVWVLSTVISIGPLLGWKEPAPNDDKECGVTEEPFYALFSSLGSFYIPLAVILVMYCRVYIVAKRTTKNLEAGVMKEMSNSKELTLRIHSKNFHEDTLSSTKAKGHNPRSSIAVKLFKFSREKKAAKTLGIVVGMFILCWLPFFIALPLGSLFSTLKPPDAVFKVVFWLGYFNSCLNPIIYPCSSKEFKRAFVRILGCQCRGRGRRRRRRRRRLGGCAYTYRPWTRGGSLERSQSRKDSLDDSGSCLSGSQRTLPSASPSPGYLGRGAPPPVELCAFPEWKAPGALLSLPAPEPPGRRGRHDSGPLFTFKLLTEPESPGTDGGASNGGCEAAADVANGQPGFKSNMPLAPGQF

α2-ARs = biological target: α2-ARs; parameters: method as in PMID 27658792; conditions: [3H]-Clonidine, rat cerebral cortex; ± SEM; cited from earlier work
α1A-ARs = biological target: T2, α1A-ARs (Homo sapiens, UniProt P35348); parameters: method as in PMID 27658792; key to α1A Profile: ANT—antagonist; AGO—agonist; conditions: cited from earlier work
T2 sequence (P35348 1-466): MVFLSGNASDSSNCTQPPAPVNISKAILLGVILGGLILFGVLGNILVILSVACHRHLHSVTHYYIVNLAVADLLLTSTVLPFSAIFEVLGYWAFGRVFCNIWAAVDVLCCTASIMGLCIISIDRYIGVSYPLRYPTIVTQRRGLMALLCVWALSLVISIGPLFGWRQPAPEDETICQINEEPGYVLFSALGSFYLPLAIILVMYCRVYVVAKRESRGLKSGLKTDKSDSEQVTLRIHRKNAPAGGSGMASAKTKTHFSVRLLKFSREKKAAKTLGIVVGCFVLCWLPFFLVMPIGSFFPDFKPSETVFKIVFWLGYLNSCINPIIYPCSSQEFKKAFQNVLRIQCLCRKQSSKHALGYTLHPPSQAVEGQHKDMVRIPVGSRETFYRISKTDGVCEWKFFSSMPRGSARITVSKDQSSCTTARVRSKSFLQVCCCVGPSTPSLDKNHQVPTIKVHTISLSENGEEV

α1D-ARs = biological target: T3, α1D-ARs (Homo sapiens, UniProt P25100); parameters: method as in PMID 27658792; key to α1D Profile: ANT—antagonist; AGO—agonist; conditions: cited from earlier work
T3 sequence (P25100 1-572): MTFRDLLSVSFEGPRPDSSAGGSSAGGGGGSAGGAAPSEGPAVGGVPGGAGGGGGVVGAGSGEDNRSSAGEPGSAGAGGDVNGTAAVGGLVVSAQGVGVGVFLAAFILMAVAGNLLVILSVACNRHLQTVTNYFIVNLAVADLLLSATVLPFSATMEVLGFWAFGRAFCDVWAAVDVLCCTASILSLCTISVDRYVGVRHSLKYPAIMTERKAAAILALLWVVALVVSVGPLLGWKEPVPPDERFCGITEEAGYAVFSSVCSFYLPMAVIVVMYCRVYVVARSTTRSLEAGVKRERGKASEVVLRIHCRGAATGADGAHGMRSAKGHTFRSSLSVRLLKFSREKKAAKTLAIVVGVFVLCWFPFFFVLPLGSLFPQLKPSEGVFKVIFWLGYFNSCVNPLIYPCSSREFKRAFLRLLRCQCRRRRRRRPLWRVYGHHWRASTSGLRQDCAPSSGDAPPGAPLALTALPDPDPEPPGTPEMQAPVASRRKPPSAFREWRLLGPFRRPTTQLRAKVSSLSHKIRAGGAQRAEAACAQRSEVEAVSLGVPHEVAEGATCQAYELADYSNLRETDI

- Major Metabolic Pathway ([1]; RLM): N-dealkylation
- microsomal CLint at 10 μM ([1]; male, rat, rat liver microsomes, pH 7.4, RLM 0.2 mg/mL, compound 10 μM, 37 °C): 87 µL/min/mg
- half-life at 10 μM ([1]; male, rat, rat liver microsomes, pH 7.4, RLM 0.2 mg/mL, compound 10 μM, 37 °C, read-out: t½): 40 min
Compound: CC(C)Oc1ccccc1OCCN1CCC(CNS(=O)(=O)c2cccc(Cl)c2F)CC1 [Compound I]
- IC50 (α1B-ARs; antagonist mode): 0.0421 µM
- α1B Profile (α1B-ARs; functional profile): ANT
- Ki (α2-ARs): 1.21 ± 0.099 µM
- IC50 (α1A-ARs; antagonist mode): 0.0111 µM
- α1A Profile (α1A-ARs; functional profile): ANT ^b
- IC50 (α1D-ARs; antagonist mode): 0.0151 µM
- α1D Profile (α1D-ARs; functional profile): ANT
